Assay results as given in patent publication US4434788A, “Enhancer of anti-tumor effect” (Yamasa Shoyu Kabushiki Kaisha, priority 1980, dated 1984).
Read-outs that look alike come from different tables or passages of the source.

Legend:
[1] = tested on: adenosinedeaminase; details: cited from earlier work
[2] = tested on: EMT-6 tumors; experiment: Radiosensitizing effect on EMT-6 tumor in mouse, 1500 rad, tumor size and cure; assay type: in vivo, BALB/c-strain female mice
[3] = tested on: potentially lethal damage repair; experiment: PLDR-inhibiting / radiosensitizing activity (general statements)
[4] = tested on: Chinese hamster-HA-1 cells; experiment: Plating efficiency of stationary-phase HA-1 cells given enhancer immediately after 1,000 R X-ray (inhibition of PLDR); assay type: cell-based; details: for Plating efficiency after 3 hours: control 1.8; for Plating efficiency after 6 hours: control 2.4; for Plating efficiency after 9 hours: control 3.8
Experimental: (§2) (1) Cells under stationary phase, prepared by planting 2×10^5 cells/well of Chinese hamster-HA-1 cells in a multiwell dish and exchanging cultural medium every day starting on the third day and thereafter were irradiated with 1,000 R of X-rays. Immediately after radiation, 3'-dUrd, and 3'-dGuo in HANKs' balanced salt solution were administered. Then, after elapse of various times, the cells were taken off with trypsin, and a suitable number of cells were transferred into petri dishes for testing colony forming ability and plating efficiencies. The percentages of survival were calculated with corrections by the plating efficiencies with the pharmaceutical agents alone.

[5] = as above; assay type: cell-based, Chinese hamster; details: chinese hamster, ha-1 cells, no irradiation, control 66, read-out: Plating efficiency, treated only with enhancer (after 9 hours)
Experimental: as §2

[6] = tested on: HA-1 cells; experiment: Survival percent of stationary-phase HA-1 cells treated with enhancer 30 minutes before X-ray irradiation; assay type: cell-based, Chinese hamster
Experimental: (§1) (2) HA-1 cells under stationary phase prepared similarly as in (1), were irradiated with various doses (200 to 800 R) of X-rays for examination of effects of the enhancer on plating efficiencies of the cells. The treatment with the enhancer was conducted 30 minutes before irradiation. Measurement of plating efficiencies was carried out for the cells immediately after irradiation with X-rays.

[7] = as above; assay type: cell-based, Chinese hamster; details: ha-1 cells, no irradiation, control 90, read-out: Plating efficiency of the group not irradiated with X-Rays
Experimental: as §1

[8] = tested on: EMT-6 tumors; experiment: Enhancement of the effect of anti-tumor agents on EMT-6 tumor in mouse; assay type: in vivo, BALB/c-strain mice; details: for Mean tumor diameter 7 days after commencement of treatment: control 7.38; for Mean tumor diameter 14 days after commencement of treatment: control 9.20; for Mean tumor diameter ratio 7 days after commencement of treatment: control 1.27; for Mean tumor diameter ratio 14 days after commencement of treatment: control 1.57
Experimental: (1) EMT-6 tumor cells (1×10^6) were inoculated intradermally into the right thighs of BALB/c-strain mice (7 weeks old). On the 10th day after inoculation of the tumor cells and thereafter, various enhancer chemicals in physiological saline solutions were administered intrapenitoneally to the mouse every other day in the indicated doses for respective agents. The pharmaceutical agents of the present invention were administered 30 minutes after administration of the anti-tumor agents. After commencement of the treatment with pharmaceutical agents, the tumor sizes were measured every other day and compared with the control group.

[9] = 3'-dUrd 0.8 mg/mouse + irradiation 1500 rad, irradiation alone 0%
[10] = 3'-dUrd 0.8 mg/mouse + irradiation 1500 rad, irradiation alone 0/10
[11] = 3'-dUrd 150 μg/ml after 1,000 R
[12] = 3'-dUrd 300 μg/ml after 1,000 R
[13] = 3'-dUrd 600 μg/ml after 1,000 R
[14] = ACNU alone 25 mg/kg × 5, n = 7, before treatment 6.23 ± 0.76
[15] = ADM alone 2 mg/kg × 8, n = 10, before treatment 6.72 ± 1.00
[16] = araC alone 50 mg/kg × 8, n = 7, before treatment 6.11 ± 0.78

Compound: OC[C@H]1O[C@@H](n2cnc3c2N=CNC[C@H]3O)C[C@@H]1O [2'-deoxycoformycin]
- Inhibition of adenosinedeaminase [1]: inhibitor against adenosinedeaminase

Compound: O=c1ccn([C@@H]2O[C@H](CO)C[C@H]2O)c(=O)[nH]1 [3'-dUrd, 3'-deoxyuridine]
- Cure (number of mice) ([2]; 3'-dUrd 0.8 mg/mouse + irradiation 1500 rad, 28 days, irradiation alone 1/10): 3/7
- Cure (percent) ([2]; 3'-dUrd 0.8 mg/mouse + irradiation 1500 rad, 28 days, irradiation alone 10%): 43%
- 0.5 to less than 1 of volume ratio excluding cure; Tumor regression rate: slow (percent) [2, 9]: 0%
- Less than 0.5 of volume ratio excluding cure; Tumor regression rate: rapid (percent) [2, 9]: 14%
- 0.5 to less than 1 of volume ratio excluding cure; Tumor regression rate: slow (number) [2, 10]: 0/7
- Less than 0.5 of volume ratio excluding cure; Tumor regression rate: rapid (number) [2, 10]: 1/7
- 1.0 to less than 2.0 of volume ratio excluding cure; regrowth: slow (number) ([2]; 3'-dUrd 0.8 mg/mouse + irradiation 1500 rad, irradiation alone 3/10): 2/7
- 2.0 or more of volume ratio excluding cure; regrowth: rapid (number) ([2]; 3'-dUrd 0.8 mg/mouse + irradiation 1500 rad, irradiation alone 6/10): 1/7
- 1.0 to less than 2.0 of volume ratio excluding cure; regrowth: slow (percent) ([2]; 3'-dUrd 0.8 mg/mouse + irradiation 1500 rad, irradiation alone 30%): 29%
- 2.0 or more of volume ratio excluding cure; regrowth: rapid (percent) ([2]; 3'-dUrd 0.8 mg/mouse + irradiation 1500 rad, irradiation alone 60%): 14%
- Mean tumor diameter 2 weeks after treatment ([2]; 3'-dUrd 40 mg/kg i.p. 30 min before 1500 rad, n = 7, baseline 6.00 ± 0.41 mm, irradiation alone 7.41): 6.31 ± 0.97 mm
- Mean tumor diameter 3 weeks after treatment ([2]; 3'-dUrd 40 mg/kg i.p. 30 min before 1500 rad, n = 7, baseline 6.00 ± 0.41 mm, irradiation alone 8.29): 4.29 ± 1.73 mm
- Diameter ratio 2 weeks after treatment ([2]; 3'-dUrd 40 mg/kg i.p. 30 min before 1500 rad, n = 7, irradiation alone 1.09): 1.06 ± 0.15
- Diameter ratio 3 weeks after treatment ([2]; 3'-dUrd 40 mg/kg i.p. 30 min before 1500 rad, n = 7, irradiation alone 1.17): 0.66 ± 0.25
- Volume ratio 2 weeks after treatment ([2]; 3'-dUrd 40 mg/kg i.p. 30 min before 1500 rad, n = 7, irradiation alone 1.44): 1.63 ± 0.44
- Volume ratio 3 weeks after treatment ([2]; 3'-dUrd 40 mg/kg i.p. 30 min before 1500 rad, n = 7, irradiation alone 2.06): 1.21 ± 0.60
- Radiosensitizing activity [3]: excellent radiosensitizing activities
- Plating efficiency after 3 hours [4, 11]: 1.6%
- Plating efficiency after 6 hours [4, 11]: 2.2%
- Plating efficiency after 9 hours [4, 11]: 3.5%
- Plating efficiency after 3 hours [4, 12]: 1.2%
- Plating efficiency after 6 hours [4, 12]: 1.9%
- Plating efficiency after 9 hours [4, 12]: 3.1%
- Plating efficiency after 3 hours [4, 13]: 0.9%
- Plating efficiency after 6 hours [4, 13]: 1.6%
- Plating efficiency after 9 hours [4, 13]: 2.6%
- Inhibition of repair (PLDR) after irradiation with X-rays ([4]; HA-1 cells, Table 1): found to inhibit repair (PLDR) after irradiation with X-rays
- Toxicity as examined by plating efficiencies ([4]; HA-1 cells, Table 1): Substantially no toxicity was observed
- viability at 9 h ([5]; 3'-dUrd 150 μg/ml): 65%
- viability at 9 h ([5]; 3'-dUrd 300 μg/ml): 60%
- viability at 9 h ([5]; 3'-dUrd 600 μg/ml): 58%
- Survival percent of the group irradiated with X-Rays ([6]; 100 μg/ml, 200R, control 88): 45%
- Survival percent of the group irradiated with X-Rays ([6]; 100 μg/ml, 400R, control 27): 19%
- Survival percent of the group irradiated with X-Rays ([6]; 100 μg/ml, 600R, control 5.9): 5.2%
- Survival percent of the group irradiated with X-Rays ([6]; 100 μg/ml, 800R, control 1.9): 1.8%
- Survival percent of the group irradiated with X-Rays ([6]; 200 μg/ml, 200R, control 88): 39%
- Survival percent of the group irradiated with X-Rays ([6]; 200 μg/ml, 400R, control 27): 15%
- Survival percent of the group irradiated with X-Rays ([6]; 200 μg/ml, 600R, control 5.9): 4.9%
- Survival percent of the group irradiated with X-Rays ([6]; 200 μg/ml, 800R, control 1.9): 1.8%
- Survival percent of the group irradiated with X-Rays ([6]; 400 μg/ml, 200R, control 88): 30%
- Survival percent of the group irradiated with X-Rays ([6]; 400 μg/ml, 400R, control 27): 13%
- Survival percent of the group irradiated with X-Rays ([6]; 400 μg/ml, 600R, control 5.9): 3.8%
- Survival percent of the group irradiated with X-Rays ([6]; 400 μg/ml, 800R, control 1.9): 1.2%
- Survival percent of the group irradiated with X-Rays ([6]; 800 μg/ml, 200R, control 88): 29%
- Survival percent of the group irradiated with X-Rays ([6]; 800 μg/ml, 400R, control 27): 13%
- Survival percent of the group irradiated with X-Rays ([6]; 800 μg/ml, 600R, control 5.9): 3.8%
- Survival percent of the group irradiated with X-Rays ([6]; 800 μg/ml, 800R, control 1.9): 1.0%
- Sensitizing effect under X-ray irradiation ([6]; HA-1 cells, Table 2): found to exhibit sensitizing effect especially with low dosage of irradiation with X-rays
- viability ([7]; 100 μg/ml): 85%
- viability ([7]; 200 μg/ml): 87%
- viability ([7]; 400 μg/ml): 85%
- viability ([7]; 800 μg/ml): 80%

Compound: Cc1ncc(CNC(=O)N(CCCl)N=O)c(N)n1 [ACNU, reference compound]
- Mean tumor diameter 7 days after commencement of treatment [8, 14]: 5.51 ± 1.91 mm
- Mean tumor diameter 14 days after commencement of treatment [8, 14]: 6.54 ± 1.82 mm
- Mean tumor diameter ratio 7 days after commencement of treatment ([8]; ACNU alone 25 mg/kg × 5, n = 7): 0.87 ± 0.21
- Mean tumor diameter ratio 14 days after commencement of treatment ([8]; ACNU alone 25 mg/kg × 5, n = 7): 1.06 ± 0.29

Compound: COc1cccc2c1C(=O)c1c(O)c3c(c(O)c1C2=O)C[C@@](O)(C(=O)CO)C[C@@H]3O[C@H]1C[C@H](N)[C@H](O)[C@H](C)O1 [ADM, Adriamycin, reference compound]
- Mean tumor diameter 7 days after commencement of treatment [8, 15]: 7.67 ± 1.30 mm
- Mean tumor diameter 14 days after commencement of treatment [8, 15]: 9.04 ± 1.77 mm
- Mean tumor diameter ratio 7 days after commencement of treatment ([8]; ADM alone 2 mg/kg × 8, n = 10): 1.17 ± 0.29
- Mean tumor diameter ratio 14 days after commencement of treatment ([8]; ADM alone 2 mg/kg × 8, n = 10): 1.38 ± 0.36

Compound: O=c1[nH]c(=O)n(C2CCCO2)cc1F (stereo not drawn) [FT-207, 1-(2-tetrahydrofuryl)-5-fluorouracil, reference compound]
- Mean tumor diameter 18 days after commencement of treatment ([8]; FT-207 alone 100 mg/kg × 6, n = 9, before treatment 6.96 ± 1.43, control 11.43): 8.37 ± 2.12 mm
- Mean tumor diameter ratio 18 days after commencement of treatment ([8]; FT-207 alone 100 mg/kg × 6, n = 9, control 1.97): 1.20 ± 0.31

Compound: Nc1ccn([C@@H]2O[C@H](CO)[C@@H](O)[C@@H]2O)c(=O)n1 [araC, 1-β-D-arabinofuranosylcytosine, reference compound]
- Mean tumor diameter 7 days after commencement of treatment [8, 16]: 7.11 ± 1.48 mm
- Mean tumor diameter 14 days after commencement of treatment [8, 16]: 8.07 ± 2.62 mm
- Mean tumor diameter ratio 7 days after commencement of treatment ([8]; araC alone 50 mg/kg × 8, n = 7): 1.16 ± 0.18
- Mean tumor diameter ratio 14 days after commencement of treatment ([8]; araC alone 50 mg/kg × 8, n = 7): 1.38 ± 0.46

Compound: Bleomycin [BLM, reference compound]
- Mean tumor diameter 18 days after commencement of treatment ([8]; BLM alone 25 mg/kg × 4, n = 10, before treatment 6.12 ± 1.17, control 11.43 ± 2.30): 9.77 ± 2.50 mm
- Mean tumor diameter ratio 18 days after commencement of treatment ([8]; BLM alone 25 mg/kg × 4, n = 10, control 1.97 ± 0.40): 1.60 ± 0.41
